This is an account of results in patent US20170291905A1, “ARGININE […] INHIBITORS AND USES THEREOF” (Epizyme, Inc., priority 2014, published 2017).

Structures can show the parent of a compound that is named as a salt.

full-length human PRMT6 (Flag- and His-tagged), sequence (Q96LA8 with tags, fused parts or gaps): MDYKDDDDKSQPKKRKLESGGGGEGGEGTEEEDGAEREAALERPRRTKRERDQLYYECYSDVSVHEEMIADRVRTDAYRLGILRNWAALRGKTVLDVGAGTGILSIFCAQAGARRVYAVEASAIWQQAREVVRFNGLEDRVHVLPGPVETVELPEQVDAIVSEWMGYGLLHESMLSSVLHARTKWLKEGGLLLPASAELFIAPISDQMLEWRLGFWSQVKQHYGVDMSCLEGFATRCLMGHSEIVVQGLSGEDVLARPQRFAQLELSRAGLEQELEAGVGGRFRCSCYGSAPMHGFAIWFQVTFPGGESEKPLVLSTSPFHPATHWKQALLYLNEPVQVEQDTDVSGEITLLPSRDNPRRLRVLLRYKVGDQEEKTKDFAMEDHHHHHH

This test addresses full-length human PRMT6 (Flag- and His-tagged) (Homo sapiens, UniProt Q96LA8). In words: PRMT6 biochemical assay (3H-SAM Flashplate, histone H4 36-50 K44me1 peptide). The settings on record: 1 nM PRMT6, 30 min preincubation, 75 nM peptide. An excerpt:
S-adenosylmethionine (SAM), S-adenosylhomocysteine (SAH), bicine, Tween20, dimethylsulfoxide (DMSO), bovine skin gelatin (BSG), sodium butyrate and Tris(2-carboxyethyl)phosphine hydrochloride solution (TCEP) were purchased from Sigma-Aldrich at the highest level of purity possible. ^3H-SAM was purchase from American Radiolabeled Chemicals with a specific activity of 80 Ci/mmol. 384-well streptavidin Flashplates were purchased from PerkinElmer.
Peptide representative of human histone H4 residues 36-50 was synthesized with an N-terminal linker-affinity tag motif and a C-terminal amide cap by 21st Century Biochemicals. The peptide was purified by high-performance liquid chromatography (HPLC) to greater than 95% purity and confirmed by liquid chromatography mass spectrometry (LC-MS). The sequence was Biot-Ahx-[…]-amide and contained a monomethylated lysine at position 44 (SEQ ID NO.:5).
Full-length human PRMT6 (NM_018137.2) transcript clone was amplified from an HEK 293 cDNA library, incorporating a flanking 5′ sequence encoding a FLAG tag ([…]) (SEQ ID NO.:6) fused directly to Ser 2 of PRMT6 and a 3′ sequence encoding a hexa His sequence (HHHHHH) (SEQ ID NO.: 17) fused directly to Asp 375. The amplified gene was subcloned into pFastBacMam (Viva Biotech).
Recombinant baculovirus were generated according to Bac-to-Bac kit instructions (Life Technologies). […] Infections were carried out at 37° C. for 48 hours, harvested by centrifugation, and stored at −80° C. for purification.
Column was washed with 20 mM imidazole in the same buffer and Flag-PRMT6-His was eluted with 150 mM imidazole. Pooled fractions were dialysed against buffer Ni-A and further purified by anti-flag M2 affinity chromatography. Flag-PRMT6-His was eluted with 200 ug/ml FLAG peptide in the same buffer. Pooled fractions were dialysed in 20 mM Tris, 150 mM NaCl, 10% glycerol and 5 mM β-mercaptoethanol, pH 7.8. The purity of recovered protein was 95%.
General Procedure for PRMT6 Enzyme Assays on Peptide Substrates.
The assays were all performed in a buffer consisting of 20 mM Bicine (pH=7.6), 1 mM TCEP, 0.005% BSG, and 0.002% Tween 20, prepared on the day of use. Compounds in 100% DMSO (1 ul) were spotted into a polypropylene 384-well V-bottom plates (Greiner) using a Platemate Plus outfitted with a 384-channel head (Thermo Scientific). DMSO (1 ul) was added to Columns 11, 12, 23, 24, rows A-H for the maximum signal control and 1 ul of SAH, a known product and inhibitor of PRMT6, was added to columns 11, 12, 23, 24, rows I-P for the minimum signal control. A cocktail (40 ul) containing the PRMT6 enzyme was added by Multidrop Combi (Thermo-Fisher). The compounds were allowed to incubate with PRMT6 for 30 min at room temperature, then a cocktail (10 ul) containing SAM and peptide was added to initiate the reaction (final volume=51 ul). The final concentrations of the components were as follows: PRMT6 was 1 nM, ^3H-SAM was 200 nM, non-radiolabeled SAM was 250 nM, peptide was 75 nM, SAH in the minimum signal control wells was 1 mM, and the DMSO concentration was 2%. The assays were stopped by the addition of non-radiolabeled SAM (10 ul) to a final concentration of 400 uM, which dilutes the ^3H-SAM to a level where its incorporation into the peptide substrate is no longer detectable. 50 ul of the reaction in the 384-well polypropylene plate was then transferred to a 384-well Flashplate and the biotinylated peptides were allowed to bind to the streptavidin surface for at least 1 hour before being washed once with 0.1% Tween20 in a Biotek ELx405 plate washer. The plates were then read in a PerkinElmer TopCount plate reader to measure the quantity of ^3H-labeled peptide bound to the Flashplate surface, measured as disintegrations per minute (dpm) or alternatively, referred to as counts per minute (cpm).
Where dpm=disintegrations per minute, cmpd=signal in assay well, and min and max are the respective minimum and maximum signal controls. […]
On to `CNCCN(C)Cc1c[nH]nc1C1CCC(OCCCOC)C2(CCCC2)C1` (mixture of isomers) [compound 19, N1-((3-(10-(3-methoxypropoxy)spiro[4.5]decan-7-yl)-1H-pyrazol-4-yl)methyl)-N1,N2-dimethylethane-1,2-diamine dihydrochloride], for which the midpoint of inhibition, the IC50, lay at 191 nM. The result for `CNCCN(C)Cc1c[nH]nc1[C@@H]1CC[C@@H](OCCCOC)C2(CCCC2)C1` (racemic) [compound 26, N1-((3-((7R,10R)-10-(3-methoxypropoxy)spiro[4.5]decan-7-yl)-1H-pyrazol-4-yl)methyl)-N1,N2-dimethylethane-1,2-diamine] reads 107 nM. `CNCCN(C)Cc1c[nH]nc1[C@@H]1CC[C@H](OCCCOC)C2(CCCC2)C1` (racemic) [compound 27, N1-((3-((7R,10S)-10-(3-methoxypropoxy)spiro[4.5]decan-7-yl)-1H-pyrazol-4-yl)methyl)-N1,N2-dimethylethane-1,2-diamine] showed an IC50 of 383 nM. The same measure for `CNCCN(C)Cc1c[nH]nc1C1CC(COCC2CC2)CC(COCC2CC2)C1` (stereo not shown) [compound 2]: 741 nM; for `CNCCN(C)Cc1c[nH]nc1[C@H]1CC[C@@]2(CCCCO2)CC1` [compound 3]: 27.7 nM. The result for `CNCCN(C)Cc1c[nH]nc1[C@H]1CC[C@]2(CCCOC2)CC1` [compound 4, N1-((3-((6s,9s)-2-oxaspiro[5.5]undecan-9-yl)-1H-pyrazol-4-yl)methyl)-N1,N2-dimethylethane-1,2-diamine] reads 33.1 nM; that for `CNCCN(C)Cc1c[nH]nc1[C@H]1CC[C@@]2(CCCOC2)CC1` [compound 5, N1-((3-((6r,9r)-2-oxaspiro[5.5]undecan-9-yl)-1H-pyrazol-4-yl)methyl)-N1,N2-dimethylethane-1,2-diamine], 35.9 nM.

Compound `CNCCN(C)Cc1c[nH]nc1C1CCC(COCC(C)C)(COCC(C)C)CC1` [compound 6] returned an IC50 of 32 nM. The same measure for `CNCCN(C)Cc1c[nH]nc1C1CCC2(CCC(OC)CC2)CC1` (stereo not shown) [compound 9, N1-((3-(9-methoxyspiro[5.5]undecan-3-yl)-1H-pyrazol-4-yl)methyl)-N1,N2-dimethylethane-1,2-diamine]: 13.5 nM; for `CNCCN(C)Cc1c[nH]nc1[C@H]1CC[C@]2(CCN(CCC(C)C)C2=O)CC1` [compound 10]: 38.5 nM. On to `CNCCN(C)Cc1c[nH]nc1[C@H]1CC[C@@]2(CCN(CCC(C)C)C2=O)CC1` [compound 11, (5r,8r)-2-isopentyl-8-(4-((methyl(2-(methylamino)ethyl)amino)methyl)-1H-pyrazol-3-yl)-2-azaspiro[4.5]decan-1-one], for which half-maximal inhibition (IC50) was put at 18.6 nM. `CNCCN(C)Cc1c[nH]nc1C1C[C@@H](C(=O)N(C)CC(C)C)C(C)(C)[C@H](C(=O)N(C)CC(C)C)C1` (stereo partly shown) [compound 12] yielded a 50% inhibitory concentration (IC50) above 10000 nM. The same measure for `CNCCN(C)Cc1c[nH]nc1C1C[C@H](C(=O)NCCOC)C(C)(C)[C@H](C(=O)NCCOC)C1` (stereo partly shown) [compound 13]: above 10000 nM; for `CCN(C)C(=O)C1CC(c2n[nH]cc2CN(C)CCNC)CC(C(=O)NCCC(C)C)C1(C)C` (stereo not shown) [compound 14, N1-ethyl-N3-isopentyl-N1,2,2-trimethyl-5-(4-((methyl(2-(methylamino)ethyl)amino)methyl)-1H-pyrazol-3-yl)cyclohexane-1,3-dicarboxamide]: above 10000 nM. In turn, `CNCCN(C)Cc1c[nH]nc1C1=CCC(CF)(CF)CC1` [compound 15, N-((3-(4,4-bis(fluoromethyl)cyclohex-1-en-1-yl)-1H-pyrazol-4-yl)methyl)-N1,N2-dimethylethane-1,2-diamine] gave an IC50 of 16.7 nM.

`CNCCN(C)Cc1c[nH]nc1C1=CCC(COCC(F)(F)F)CC1` (stereo not shown) [compound 16, N1,N2-dimethyl-N1-((3-(4-((2,2,2-trifluoroethoxy)methyl)cyclohex-1-en-1-yl)-1H-pyrazol-4-yl)methyl)ethane-1,2-diamine]: half-maximal inhibition (IC50) required 17 nM. In turn, `CNCCN(C)Cc1c[nH]nc1C1CCC(C)(C)[C@H](OCC(C)C)C1` (stereo partly drawn) [compound 20, ({3-[(3R)-4,4-dimethyl-3-(2-methylpropoxy)cyclohexyl]-1H-pyrazol-4-yl}methyl)(methyl)[2-(methylamino)ethyl]amine] yielded an IC50 of 74.8 nM. `CCC1CC(c2n[nH]cc2CN(C)CCNC)CC(C(=O)NCCOC)C1(C)C` (stereo not shown) [compound 21, 3-ethyl-N-(2-methoxyethyl)-2,2-dimethyl-5-[4-([methyl[2-(methylamino)ethyl]amino]methyl)-1H-pyrazol-3-yl]cyclohexane-1-carboxamide dihydrochloride] displayed an IC50 of 789 nM. The result for `CCC1(CC)CC2(CCC(c3n[nH]cc3CN(C)CCNC)CC2)N(C)C1=O` (stereo not shown) [compound 22, 3,3-diethyl-1-methyl-8-(4-((methyl(2-(methylamino)ethyl)amino)methyl)-1H-pyrazol-3-yl)-1-azaspiro[4.5]decan-2-one] reads 62.7 nM; that for `CNCCN(C)Cc1c[nH]nc1[C@H]1CC[C@@H](COCC(F)(F)F)CC1` [compound 23, N1,N2-dimethyl-N1-((3-((1s,4s)-4-((2,2,2-trifluoroethoxy)methyl)cyclohexyl)-1H-pyrazol-4-yl)methyl)ethane-1,2-diamine], 78.5 nM. The result for `CNCCN(C)Cc1c[nH]nc1[C@H]1CC[C@H](COCC(F)(F)F)CC1` [compound 24, N1,N2-dimethyl-N1-((3-((1r,4r)-4-((2,2,2-trifluoroethoxy)methyl)cyclohexyl)-1H-pyrazol-4-yl)methyl)ethane-1,2-diamine] reads 21.6 nM; that for `CNCCN(C)Cc1cn(C)nc1C1CCC(C)(C)[C@@H](C(=O)NCC(C)C)C1` (stereo partly shown) [compound 25], 1610 nM; that for `CNCCNCc1c[nH]nc1[C@H]1CC[C@@]2(CC1)CC(C)(C)CO2` [compound 28, N1-((3-((5s,8s)-3,3-dimethyl-1-oxaspiro[4.5]decan-8-yl)-1H-pyrazol-4-yl)methyl)-N2-methylethane-1,2-diamine], 262 nM. In turn, `CNCCNCc1c[nH]nc1[C@H]1CC[C@]2(CC1)CC(C)(C)CO2` [compound 29, N1-((3-((5r,8r)-3,3-dimethyl-1-oxaspiro[4.5]decan-8-yl)-1H-pyrazol-4-yl)methyl)-N2-methylethane-1,2-diamine] had an IC50 of 1910 nM. Turning to `CNCCN(C)Cc1c[nH]nc1C1CCC(C)(C)[C@H](COCCCOC)C1` (stereo partly drawn) [compound 30, {2-[({3-[(3R)-3-[(3-methoxypropoxy)methyl]-4,4-dimethylcyclohexyl]-1H-pyrazol-4-yl}methyl)(methyl)amino]ethyl}(methyl)amine], the IC50 amounted to 60.3 nM. The result for `CCOC[C@@H]1CC(c2n[nH]cc2CN(C)CCNC)CCC1(C)C` (stereo partly drawn) [compound 31, {2-[({3-[(3R)-3-(ethoxymethyl)-4,4-dimethylcyclohexyl]-1H-pyrazol-4-yl}methyl)(methyl)amino]ethyl}(methyl)amine] reads 45.6 nM; that for `CNCCN(C)Cc1c[nH]nc1C1CCC(C)(C)[C@H](CO)C1` (stereo partly drawn) [compound 32, [(1R)-2,2-dimethyl-5-[4-({methyl[2-(methylamino)ethyl]amino}methyl)-1H-pyrazol-3-yl]cyclohexyl]methanol], 16.3 nM. The same measure for `CCC1(CC)C[C@]2(CC[C@H](c3n[nH]cc3CN(C)CCNC)CC2)OC1=O` [compound 33, (5s,8s)-3,3-diethyl-8-(4-((methyl(2-(methylamino)ethyl)amino)methyl)-1H-pyrazol-3-yl)-1-oxaspiro[4.5]decan-2-one]: 20.8 nM.

The term IC50 denotes the concentration at which inhibition is half-maximal.
